Test results from patent US4032633A, “Polypeptides” (Imperial Chemical Industries Limited, priority 1974, dated 1977).

System: secretion of acidic gastric juice stimulated with histamine
Test: Inhibition of histamine-stimulated secretion of acidic gastric juice in dogs with a Heidenhain pouch, single intravenous injection
Type: in vivo, dog
Conditions: column fractions or products assayed in histamine-stimulated pouch dogs
Protocol: This test is used to determine the biological potency of the products, which is defined as the amount of the product expressed in μg./kg. which, on administration by intravenous injection to a dog provided with a Heidenhain pouch and whose secretion of gastric acid is stimulated to 60-89% of the maximum level of secretion by an infusion of histamine, causes a 50-70% inhibition of that acid secretion. Some variation in the biological potency of a particular sample is found if it is measured in different dogs and on different occasions, and so the result is best expressed as a dose range. The physiological effect of inhibiting the secretion of acidic gastric juice is of value in the treatment of duodenal ulcers, and under the test conditions, no serious toxic effects were observed. The polypeptides also show ulcer healing properties in a standard test. […]
Dogs were prepared with separated denervated fundic pouches, and a subcutaneous infusion of histamine was used to stimulate gastric secretion to approximately 60-80% of the maximal rate [usually an infusion of a solution of 600 μg. of histamine (expressed as base) in 0.48 ml. per hour was adequate]. […]
The specific activity may be determined from the results obtained for several different doses.

| Substance | biological activity (inhibition of gastric secretion), in words |
| --- | --- |
| material in fractions 49-65: pentapeptide liberated from γ-urogastrone: Glu 1, Leu 1, Lys 1, Trp 2, lysine at the N-terminus (KWWEL; Epidermal growth factor; UniProt P01133 1018-1022, looked up, fragment) | biologically inactive |
| material in fractions 38-52: hexapeptide liberated from β-urogastrone: Glu 1, Leu 1, Lys 1, Trp 2, Arg 1, lysine at the N-terminus (KWWELR; Epidermal growth factor; UniProt P01133 1018-1023, looked up, fragment) | biologically inactive |
